Measured values: PMC7619385 (ACS infectious diseases, 2025)
Read-outs that look alike come from different tables or passages of the source.

Target: T1, LmxCLK1 (Leishmania mexicana, UniProt E9AMP2)
T1 sequence (E9AMP2 1-422): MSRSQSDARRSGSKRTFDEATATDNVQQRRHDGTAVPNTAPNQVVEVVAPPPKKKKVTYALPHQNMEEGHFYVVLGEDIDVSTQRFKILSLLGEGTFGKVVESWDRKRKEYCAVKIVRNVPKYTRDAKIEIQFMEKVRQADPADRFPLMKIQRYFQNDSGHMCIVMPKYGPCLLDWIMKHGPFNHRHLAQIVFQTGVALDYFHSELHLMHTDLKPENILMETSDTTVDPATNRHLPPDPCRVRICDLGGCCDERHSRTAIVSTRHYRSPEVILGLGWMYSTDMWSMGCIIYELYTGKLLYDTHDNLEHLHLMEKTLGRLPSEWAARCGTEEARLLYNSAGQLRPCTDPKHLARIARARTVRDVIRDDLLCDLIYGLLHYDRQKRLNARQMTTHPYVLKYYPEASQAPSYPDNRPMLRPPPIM
Experiment: biochemical
Type: binding

[1] = DSF, 10 µM compound, 2 µM LmxCLK1, Run 1
[2] = DSF, 10 µM compound, 2 µM LmxCLK1, Run 2
[3] = DSF, 10 µM compound, 2 µM LmxCLK1, mean of two runs
[4] = DSF, 10 µM compound, 2 µM LmxCLK1, Run 1, read-out: ΔTm Run 1
[5] = DSF, 10 µM compound, 2 µM LmxCLK1, Run 2, read-out: ΔTm Run 2
[6] = DSF, 10 µM compound, 2 µM LmxCLK1, mean of two runs, read-out: ΔTm Average

OCCn1cc(-c2cnc3nnn(Cc4ccc5ncccc5c4)c3n2)cn1 [PF-04217903]
ΔTm Average: 0.2 °C
ΔTm Run 1: 0.1 °C
ΔTm Run 2: 0.3 °C

COc1ccc2c(Oc3ccc(NC(=O)c4c(C)n(CC(C)(C)O)n(-c5ccccc5)c4=O)nc3)ccnc2c1 [AMG-458]
ΔTm Run 1 [1]: 0.9 °C
ΔTm Run 2 [2]: 1.0 °C
ΔTm Average [3]: 1.0 °C

CC(C)(C)c1cc(/C=C(\C#N)C(N)=S)cc(C(C)(C)C)c1O [Tyrphostin AG 879]
ΔTm at 10 µM [4]: -0.1 °C
ΔTm at 10 µM [5]: -0.2 °C
ΔTm at 10 µM [6]: -0.2 °C

COc1ncc(-c2ccc3nccc(-c4ccnnc4)c3c2)cc1NS(=O)(=O)c1ccc(F)cc1F [GSK2126458 (GSK458)]
ΔTm Run 1 [1]: -0.2 °C
ΔTm Run 2 [2]: -0.3 °C
ΔTm Average [3]: -0.3 °C

CNC(=O)c1cc(COc2nnc(Nc3ccc(Cl)cc3)c3ccoc23)ccn1 [Telatinib]
ΔTm at 10 µM [4]: -0.3 °C
ΔTm at 10 µM [5]: -0.5 °C
ΔTm at 10 µM [6]: -0.4 °C

CN(C)C/C=C/C(=O)Nc1cc2c(Nc3ccc(F)c(Cl)c3)ncnc2cc1O[C@H]1CCOC1 [Afatinib (BIBW2992)]
ΔTm at 10 µM [4]: 0.1 °C
ΔTm at 10 µM [5]: -0.5 °C
ΔTm at 10 µM [6]: -0.2 °C

CN1CCC(c2c(O)cc(O)c3c(=O)cc(-c4ccccc4Cl)oc23)C1CO (centres unmarked) [P276-00]
ΔTm Average: 0.3 °C
ΔTm Run 1: 0.4 °C
ΔTm Run 2: 0.3 °C

O=C(Nc1ccc(-c2ccnc(Nc3ccc(N4CCOCC4)cc3)n2)cc1)C1CCCN1 (centres unmarked) [XL019]
ΔTm at 10 µM [4]: 0.6 °C
ΔTm at 10 µM [5]: 0.4 °C
ΔTm at 10 µM [6]: 0.5 °C

COc1cc2ncnc(Nc3cccc(Cl)c3)c2cc1OC [AG-1478 (Tyrphostin AG-1478)]
ΔTm Run 1 [1]: 0.1 °C
ΔTm Run 2 [2]: 0.3 °C
ΔTm Average [3]: 0.2 °C

CCc1nc(-c2cccc(C)c2)c(-c2ccnc(NC(=O)c3ccccc3)c2)s1 [TAK-715]
ΔTm at 10 µM [4]: 0.5 °C
ΔTm at 10 µM [5]: 0.8 °C
ΔTm at 10 µM [6]: 0.7 °C

C1=N/C2=N/c3ccc(OCCN4CCCC4)c(c3)COC/C=C/COCc3cccc(c3)C(=C1)N2 [Pacritinib (SB1518)]
ΔTm Run 1 [1]: 0.2 °C
ΔTm Run 2 [2]: 0.1 °C
ΔTm Average [3]: 0.2 °C

COc1cc2ncnc(Nc3ccc(Cl)cc3F)c2cc1OC [ZM 306416]
ΔTm Run 1 [1]: 0.2 °C
ΔTm Run 2 [2]: 0.0 °C
ΔTm Average [3]: 0.1 °C

Cl.Cl.O=S(=O)(NCCNC/C=C/c1ccc(Br)cc1)c1cccc2cnccc12 [H 89 2HCl]
ΔTm Run 1 [1]: 0.2 °C
ΔTm Run 2 [2]: -0.1 °C
ΔTm Average [3]: 0.0 °C

CA75 (GAK)
ΔTm Average: -0.1
ΔTm Run 1: -0.2
ΔTm Run 2: 0 °C

CNC(=O)c1ccc(C)c(-n2c(C)cc(OCc3ccc(F)cc3F)c(Br)c2=O)c1 [PH-797804]
ΔTm at 10 µM [4]: -0.1 °C
ΔTm at 10 µM [5]: -0.3 °C
ΔTm at 10 µM [6]: -0.2 °C

COc1ccc(-c2ccc3c(N4CCOC[C@@H]4C)nc(N4CCOC[C@@H]4C)nc3n2)cc1CO [AZD8055]
ΔTm at 10 µM [4]: 0.4 °C
ΔTm at 10 µM [5]: 0.3 °C
ΔTm at 10 µM [6]: 0.3 °C

Cn1cc(-c2ccc3nnc(Sc4ccc5ncccc5c4)n3n2)cn1 [SGX-523]
ΔTm at 10 µM [4]: -0.1 °C
ΔTm at 10 µM [5]: -0.2 °C
ΔTm at 10 µM [6]: -0.1 °C

Nc1ccc(C(=O)Nc2cccc(-c3nc(N4CCOCC4)c4oc5ncccc5c4n3)c2)cn1 [YM201636]
ΔTm Run 1: 0.4 °C
ΔTm Run 2: 0 °C

CN(C)CCOc1ccc(-c2nc(-c3ccncc3)c(-c3ccc4c(c3)CC/C4=N\O)[nH]2)cc1 [SB590885]
ΔTm at 10 µM [4]: -0.1 °C
ΔTm at 10 µM [5]: -0.4 °C
ΔTm at 10 µM [6]: -0.2 °C

Cc1cc([C@@H](C)Nc2ccccc2C(=O)O)c2nc(N3CCOCC3)cc(=O)n2c1 [AZD6482]
ΔTm at 10 µM [4]: 0.1 °C
ΔTm at 10 µM [5]: -0.1 °C
ΔTm at 10 µM [6]: 0 °C

COc1cc(N2CCC(N3CCN(C)CC3)CC2)ccc1Nc1ncc(Cl)c(Nc2ccccc2P(C)(C)=O)n1 [AP26113]
ΔTm at 10 µM [4]: 1.1 °C
ΔTm at 10 µM [5]: 0.9 °C
ΔTm at 10 µM [6]: 1 °C

COc1cc2nccc(Oc3ccc(NC(=O)C4(C(=O)Nc5ccc(F)cc5)CC4)cc3)c2cc1OC.O=C(O)C[C@H](O)C(=O)O [Cabozantinib malate (XL184)]
ΔTm Run 1 [1]: 0.1 °C
ΔTm Run 2 [2]: -0.3 °C
ΔTm Average [3]: -0.1 °C

CCOc1ccn(-c2ccc(F)cc2)c(=O)c1C(=O)Nc1ccc(Oc2ccnc(N)c2Cl)c(F)c1 [BMS-777607]
ΔTm at 10 µM [4]: 0.5 °C
ΔTm at 10 µM [5]: -0.2 °C
ΔTm at 10 µM [6]: 0.2 °C

Cl.Cl.NC1(c2ccc(-c3nc4ccn5c(=O)[nH]nc5c4cc3-c3ccccc3)cc2)CCC1 [MK-2206 2HCl]
ΔTm Run 1 [1]: -0.1 °C
ΔTm Run 2 [2]: -0.1 °C
ΔTm Average [3]: -0.1 °C

Cc1cc(NC(=O)c2cccc(NC(=O)/C=C/CN(C)C)c2)ccc1Nc1nccc(-c2cccnc2)n1 [JNK-IN-8]
ΔTm at 10 µM [4]: 0.2 °C
ΔTm at 10 µM [5]: -0.5 °C
ΔTm at 10 µM [6]: -0.1 °C

CCc1cncnc1N1CCN(Cc2nc3ccc(C(F)(F)F)cc3[nH]2)CC1 [PF-4708671]
ΔTm Average: -0.1
ΔTm Run 1: 0.1 °C
ΔTm Run 2: -0.2

CCN(CC)CCNC(=O)c1c(C)[nH]c(/C=C2\C(=O)Nc3ccc(F)cc32)c1C [Sunitinib Malate]
ΔTm at 10 µM [4]: 0.3 °C
ΔTm at 10 µM [5]: 0.2 °C
ΔTm at 10 µM [6]: 0.2 °C

COCCOc1ccc2c(c1)ncn2-c1ccc2cccc(N3CCC(N)CC3)c2n1 [CP-673451]
ΔTm at 10 µM [4]: 0.1 °C
ΔTm at 10 µM [5]: 0 °C
ΔTm at 10 µM [6]: 0 °C

S-Ruxolitinib (INCB018424)
ΔTm Run 1 [1]: 0.6 °C
ΔTm Run 2 [2]: 0.6 °C
ΔTm Average [3]: 0.6 °C

Cc1nc(NC(=O)N2CCC[C@H]2C(N)=O)sc1-c1ccnc(C(C)(C)C(F)(F)F)c1 [BYL719]
ΔTm at 10 µM [4]: 0.1 °C
ΔTm at 10 µM [5]: 0.2 °C
ΔTm at 10 µM [6]: 0.2 °C

Cc1cn(-c2cc(NC(=O)c3ccc(C)c(Nc4nccc(-c5cccnc5)n4)c3)cc(C(F)(F)F)c2)cn1 [Nilotinib (AMN-107)]
ΔTm Run 1 [1]: 0.0 °C
ΔTm Run 2 [2]: 0.0 °C
ΔTm Average [3]: 0.0 °C

CCCCCCCCc1ccc(CCC(N)(CO)CO)cc1.Cl [Fingolimod (FTY720) HCl]
ΔTm Run 1 [1]: 0.2 °C
ΔTm Run 2 [2]: -0.1 °C
ΔTm Average [3]: 0.1 °C

NCC(=O)Nc1ccc(-n2nc(C(F)(F)F)cc2-c2ccc3c(ccc4ccccc43)c2)cc1 [OSU-03012 (AR-12)]
ΔTm Run 1 [1]: -0.1 °C
ΔTm Run 2 [2]: 0.2 °C
ΔTm Average [3]: 0.0 °C

CN1CCN(c2nc(C3=C(c4c[nH]c5ccccc45)C(=O)NC3=O)c3ccccc3n2)CC1 [Sotrastaurin]
ΔTm at 10 µM [4]: 1.2 °C
ΔTm at 10 µM [5]: 0.9 °C
ΔTm at 10 µM [6]: 1 °C

CCn1c(-c2nonc2N)nc2c(C#CC(C)(C)O)ncc(OC[C@H]3CCCNC3)c21 [GSK690693]
ΔTm at 10 µM [4]: 0.1 °C
ΔTm at 10 µM [5]: -0.3 °C
ΔTm at 10 µM [6]: -0.1 °C

Cc1cc2c(F)c(Oc3ncnn4cc(OC[C@@H](C)OC(=O)[C@H](C)N)c(C)c34)ccc2[nH]1 [Brivanib Alaninate (BMS-582664)]
ΔTm Run 1 [1]: 0.3 °C
ΔTm Run 2 [2]: 0.1 °C
ΔTm Average [3]: 0.2 °C

Oc1cccc(-c2nc(N3CCOCC3)c3oc4ncccc4c3n2)c1 [PI-103]
ΔTm at 10 µM [4]: 0 °C
ΔTm at 10 µM [5]: 0 °C
ΔTm at 10 µM [6]: 0 °C

CC(O)C(=O)O.CC(O)C(=O)O.CN1CCN(c2ccc3nc(-c4c(N)c5c(F)cccc5[nH]c4=O)[nH]c3c2)CC1 [Dovitinib (TKI-258) Dilactic Acid]
ΔTm Run 1 [1]: -0.5 °C
ΔTm Run 2 [2]: -0.4 °C
ΔTm Average [3]: -0.4 °C

O=C1NCCc2[nH]c(-c3ccncc3)cc21 [PHA-767491]
ΔTm Run 1 [1]: 0.7 °C
ΔTm Run 2 [2]: 1.3 °C
ΔTm Average [3]: 1.0 °C

CC(=O)c1c(C)c2cnc(Nc3ccc(N4CCNCC4)cn3)nc2n(C2CCCC2)c1=O.Cl [Palbociclib (PD-0332991) HCl]
ΔTm Run 1 [1]: 0.6 °C
ΔTm Run 2 [2]: 0.4 °C
ΔTm Average [3]: 0.5 °C

Cc1cc(Nc2cc(N3CCN(C)CC3)nc(Sc3ccc(NC(=O)C4CC4)cc3)n2)n[nH]1 [VX-680 (Tozasertib)]
ΔTm Run 1 [1]: -0.3 °C
ΔTm Run 2 [2]: -0.4 °C
ΔTm Average [3]: -0.3 °C

COCC(=O)NC/C=C/c1ccc2ncnc(Nc3ccc(Oc4ccc(C)nc4)c(C)c3)c2c1 [CP-724714]
ΔTm at 10 µM [4]: 0.6 °C
ΔTm at 10 µM [5]: 0.2 °C
ΔTm at 10 µM [6]: 0.4 °C

CCS(=O)(=O)Nc1ccc2c(c1)/C(=C(/Nc1ccc(CN3CCCCC3)cc1)c1ccccc1)C(=O)N2 [Hesperadin]
ΔTm at 10 µM [4]: 1.7 °C
ΔTm at 10 µM [5]: 1.3 °C
ΔTm at 10 µM [6]: 1.5 °C

CC(C)(C)c1cc(NC(=O)Nc2ccc(-c3cn4c(n3)sc3cc(OCCN5CCOCC5)ccc34)cc2)no1 [Quizartinib (AC220)]
ΔTm at 10 µM [4]: 0.3 °C
ΔTm at 10 µM [5]: 0.2 °C
ΔTm at 10 µM [6]: 0.3 °C

CC(=O)Nc1nc(C)c(-c2ccc(Cl)c(S(=O)(=O)NCCO)c2)s1 [PIK-93]
ΔTm Average: 0 °C
ΔTm Run 1: 0 °C
ΔTm Run 2: -0.1

CC(C)(C#N)c1ccc(N2C(=O)OCc3cnc4ccc(-c5cnc6ccccc6c5)cc4c32)cc1 [ETP-46464]
ΔTm Run 1 [1]: 0.3 °C
ΔTm Run 2 [2]: -0.4 °C
ΔTm Average [3]: -0.1 °C

Cn1cc(-c2ccc3ncc(Cc4ccc5ncccc5c4)n3n2)cn1 [NVP-BVU972]
ΔTm Run 1 [1]: 0.3 °C
ΔTm Run 2 [2]: 0.0 °C
ΔTm Average [3]: 0.2 °C

COc1ccccc1-c1cc(Nc2cccc(CS(N)(=O)=O)c2)ncn1 [LDC000067]
ΔTm Run 1 [1]: -0.1 °C
ΔTm Run 2 [2]: 0.0 °C
ΔTm Average [3]: -0.1 °C
